Reference: patent US8106048B2, “Heterocyclic NF-κB inhibitors” (4SC AG, priority 2004, dated 2012)

Test system: A549-NF-κB-SEAP reporter cells
Experiment: Inhibition of NF-κB-induced inflammation: […] NINA Instant Assay, TNF-α stimulated SEAP reporter
Assay type: cell-based
Settings: % inhibition classes
Procedure, shortened: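 A549 cells carrying an NF-κB-driven SEAP reporter were pretreated with compound (0.01–100 μM) for 4.5 h, then stimulated with 2 ng/ml TNF-α for 22 h. After inactivation of endogenous phosphatases, SEAP activity was read by CSPD chemiluminescence (40 min). EC50 values were fitted from quadruplicate data points.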

SMILES | Biological activity (inhibition in the NF-κB inflammation assay)
O=C(c1csc(C2CCN(S(=O)(=O)Cc3ccccc3)CC2)n1)N1CCN(c2cccc(C(F)(F)F)c2)CC1 [compound 198] | + (“+” stands for 50-80% inhibition)
O=C(c1csc(C2CCN(S(=O)(=O)c3ccc(Br)cc3)CC2)n1)N1CCN(c2cccc(C(F)(F)F)c2)CC1 [compound 199] | + (“+” stands for 50-80% inhibition)
O=C(c1csc(C2CCN(S(=O)(=O)c3ccc(Cl)cc3Cl)CC2)n1)N1CCN(c2cccc(C(F)(F)F)c2)CC1 [compound 200] | ×
O=C(c1csc(C2CCN(S(=O)(=O)c3cc(C(F)(F)F)cc(C(F)(F)F)c3)CC2)n1)N1CCN(c2cccc(C(F)(F)F)c2)CC1 [compound 201] | ++ (“++” means 80-90%)
COc1ccc(Cl)cc1S(=O)(=O)N1CCC(c2nc(C(=O)N3CCN(c4cccc(C(F)(F)F)c4)CC3)cs2)CC1 [compound 202] | ++ (“++” means 80-90%)
O=C(c1csc(C2CCN(S(=O)(=O)c3ccc(Br)s3)CC2)n1)N1CCN(c2cccc(C(F)(F)F)c2)CC1 [compound 203] | + (“+” stands for 50-80% inhibition)
Cc1ccc(S(=O)(=O)N2CCC(c3nc(C(=O)N4CCN(c5cccc(C(F)(F)F)c5)CC4)cs3)CC2)cc1 [compound 204] | + (“+” stands for 50-80% inhibition)
O=C(c1csc(C2CCN(S(=O)(=O)c3ccc(OC(F)(F)F)cc3)CC2)n1)N1CCN(c2cccc(C(F)(F)F)c2)CC1 [compound 205] | + (“+” stands for 50-80% inhibition)
O=C(c1csc(C2CCN(S(=O)(=O)c3ccc(Cl)cc3)CC2)n1)N1CCN(c2cccc(C(F)(F)F)c2)CC1 [compound 206] | + (“+” stands for 50-80% inhibition)
CC(=O)Nc1ccc(S(=O)(=O)N2CCC(c3nc(C(=O)N4CCN(c5cccc(C(F)(F)F)c5)CC4)cs3)CC2)cc1 [compound 207] | + (“+” stands for 50-80% inhibition)
O=C(c1csc(C2CCN(S(=O)(=O)c3ccccc3)CC2)n1)N1CCN(c2cccc(C(F)(F)F)c2)CC1 [compound 208] | + (“+” stands for 50-80% inhibition)
COc1cccc(C(=O)N2CCC(c3nc(C(=O)N4CCN(c5cccc(C(F)(F)F)c5)CC4)cs3)CC2)c1 [compound 209] | + (“+” stands for 50-80% inhibition)
CN1CCOc2cc(C(=O)N3CCC(c4nc(C(=O)N5CCN(c6cccc(C(F)(F)F)c6)CC5)cs4)CC3)ccc21 [compound 210] | ++ (“++” means 80-90%)
O=C(c1ccc2nccnc2c1)N1CCC(c2nc(C(=O)N3CCN(c4cccc(C(F)(F)F)c4)CC3)cs2)CC1 [compound 211] | + (“+” stands for 50-80% inhibition)
O=C(c1csc(C2CCN(C(=O)c3cccs3)CC2)n1)N1CCN(c2cccc(C(F)(F)F)c2)CC1 [compound 212] | + (“+” stands for 50-80% inhibition)
O=C(c1csc(C2CCN(C(=O)c3cc4ccccc4s3)CC2)n1)N1CCN(c2cccc(C(F)(F)F)c2)CC1 [compound 213] | ++ (“++” means 80-90%)
O=C(C=Cc1ccccc1)N1CCC(c2nc(C(=O)N3CCN(c4cccc(C(F)(F)F)c4)CC3)cs2)CC1 [compound 214] | ++ (“++” means 80-90%)
O=C(c1ccc(C(F)(F)F)c(F)c1)N1CCC(c2nc(C(=O)N3CCN(c4cccc(C(F)(F)F)c4)CC3)cs2)CC1 [compound 215] | +++ (“+++” stands for 90-100% inhibition)

SMILES | Biological activity (inhibition in the NF-κB inflammation assay)
Cn1nc(C(C)(C)C)cc1C(=O)N1CCC(c2nc(C(=O)N3CCN(c4cccc(C(F)(F)F)c4)CC3)cs2)CC1 [compound 216] | ++ (“++” means 80-90%)
O=C(c1csc(C2CCN(C(=O)C3COc4ccccc4O3)CC2)n1)N1CCN(c2cccc(C(F)(F)F)c2)CC1 (stereo not shown) [compound 217] | +++ (“+++” stands for 90-100% inhibition)
O=C(c1csc(C2CCN(C(=O)c3cc(-c4ccc(Cl)cc4)oc3C(F)(F)F)CC2)n1)N1CCN(c2cccc(C(F)(F)F)c2)CC1 [compound 218] | +++ (“+++” stands for 90-100% inhibition)
Cc1noc(C)c1C(=O)N1CCC(c2nc(C(=O)N3CCN(c4cccc(C(F)(F)F)c4)CC3)cs2)CC1 [compound 219] | + (“+” stands for 50-80% inhibition)
Cc1nnsc1C(=O)N1CCC(c2nc(C(=O)N3CCN(c4cccc(C(F)(F)F)c4)CC3)cs2)CC1 [compound 221] | + (“+” stands for 50-80% inhibition)
O=C(c1cccnc1)N1CCC(c2nc(C(=O)N3CCN(c4cccc(C(F)(F)F)c4)CC3)cs2)CC1 [compound 222] | + (“+” stands for 50-80% inhibition)
O=C(c1csc(C2CCN(C(=O)c3ccccc3OC(F)(F)F)CC2)n1)N1CCN(c2cccc(C(F)(F)F)c2)CC1 [compound 223] | +++ (“+++” stands for 90-100% inhibition)
O=C(CCC1CCCC1)N1CCC(c2nc(C(=O)N3CCN(c4cccc(C(F)(F)F)c4)CC3)cs2)CC1 [compound 224] | + (“+” stands for 50-80% inhibition)
COc1cc(C(=O)N2CCC(c3nc(C(=O)N4CCN(c5cccc(C(F)(F)F)c5)CC4)cs3)CC2)cc(OC)c1OC [compound 225] | + (“+” stands for 50-80% inhibition)
CN(C)c1cccc(C(=O)N2CCC(c3nc(C(=O)N4CCN(c5cccc(C(F)(F)F)c5)CC4)cs3)CC2)c1 [compound 226] | ++ (“++” means 80-90%)
COC(=O)CC1c2ccccc2CCN1C(=O)c1csc(C2CCN(C(=O)Cc3ccc(F)cc3)CC2)n1 (stereo not shown) [compound 227] | + (“+” stands for 50-80% inhibition)
N#CC1(c2ccccc2)CCN(C(=O)c2csc(C3CCN(C(=O)Cc4ccc(F)cc4)CC3)n2)CC1 [compound 228] | + (“+” stands for 50-80% inhibition)
COc1ccccc1N1CCN(C(=O)c2csc(C3CCN(C(=O)Cc4ccc(F)cc4)CC3)n2)CC1 [compound 229] | + (“+” stands for 50-80% inhibition)
O=C(c1csc(C2CCN(C(=O)c3ccco3)CC2)n1)N1CCN(c2cccc(C(F)(F)F)c2)CC1 [compound 230] | + (“+” stands for 50-80% inhibition)
CCCCN1CCN(C(=O)c2csc(C3CCN(C(=O)Cc4ccc(F)cc4)CC3)n2)CC1 [compound 231] | + (“+” stands for 50-80% inhibition)
COc1cc2c(cc1OC)CN(C(=O)c1csc(C3CCN(C(=O)Cc4ccc(F)cc4)CC3)n1)C(C)C2 (stereo not shown) [compound 232] | + (“+” stands for 50-80% inhibition)
CC1c2cc(O)c(O)cc2CCN1C(=O)c1csc(C2CCN(C(=O)Cc3ccc(F)cc3)CC2)n1 (stereo not shown) [compound 233] | + (“+” stands for 50-80% inhibition)

Same assay, conditions: inhibition classes

SMILES | Biological activity (inhibition in the NF-κB inflammation assay)
COc1cc2c(cc1OC)C(C)N(C(=O)c1csc(C3CCN(C(=O)Cc4ccc(F)cc4)CC3)n1)CC2 (stereo not shown) [compound 234] | + (“+” stands for 50-80% inhibition)
CNc1ccc(Cl)cc1C1c2ccccc2CCN1C(=O)c1csc(C2CCN(C(=O)Cc3ccc(F)cc3)CC2)n1 (stereo not shown) [compound 235] | + (“+” stands for 50-80% inhibition)
O=C(Cc1ccc(F)cc1)N1CCC(c2nc(C(=O)N3CCCC3c3ccc(F)cc3)cs2)CC1 (stereo not shown) [compound 236] | + (“+” stands for 50-80% inhibition)
O=C(Cc1ccc(F)cc1)N1CCC(c2nc(C(=O)N3CCN(c4ccccn4)CC3)cs2)CC1 [compound 237] | + (“+” stands for 50-80% inhibition)
O=C(Cc1ccc(F)cc1)N1CCC(c2nc(C(=O)N3CCN(c4cccc(Cl)c4)CC3)cs2)CC1 [compound 238] | + (“+” stands for 50-80% inhibition)
COc1ccc(OC)c(N2CCC(c3nc(C(=O)N4CCN(c5cccc(C(F)(F)F)c5)CC4)cs3)CC2)c1 [compound 239] | + (“+” stands for 50-80% inhibition)
COc1cc(NC(=O)N2CCC(c3nc(C(=O)N4CCN(c5cccc(C(F)(F)F)c5)CC4)cs3)CC2)cc(OC)c1OC [compound 240] | ++ (“++” means 80-90%)

Test system: NF-κB
Experiment: not given
Settings: cited from earlier work

SMILES | NF-κB activation / activity
C=C1C(=O)O[C@@H]2C[C@H](C)[C@H]3C=CC(=O)[C@@]3(C)[C@@H](O)[C@H]12 [Helenalin] | inhibit NF-κB activity by selectively alkylating the cysteine residue of the p65 subunit of NF-κB
COc1cc(CNC(=O)CCCC/C=C/C(C)C)ccc1O [capsaicin] | blocked TNF-α and phorbol mediated NF-κB activation

Test system: IκB-α
Experiment: not given
Settings: cited from earlier work

SMILES | IκB degradation
C=C1C(=O)O[C@@H]2C[C@H](C)[C@H]3C=CC(=O)[C@@]3(C)[C@@H](O)[C@H]12 [Helenalin] | did not inhibit
COc1cc(CNC(=O)CCCC/C=C/C(C)C)ccc1O [capsaicin] | blocked degradation of IκB-α

Test system: p65 subunit of NF-κB
Experiment: not given
Settings: cited from earlier work

SMILES | translocation of NF-κB to the nucleus
C=C1C(=O)O[C@@H]2C[C@H](C)[C@H]3C=CC(=O)[C@@]3(C)[C@@H](O)[C@H]12 [Helenalin] | did not inhibit
COc1cc(CNC(=O)CCCC/C=C/C(C)C)ccc1O [capsaicin] | blocked

Test system: TNF-α
Experiment: not given
Settings: mouse; cited from earlier work

SMILES | lipopolysaccharide-induced TNF-α production
NC(=O)c1cccnc1 [nicotinamide] | blocked lipopolysacharide-induced TNF-α production in mouse in a dose dependent manner
